Laboratory results taken from patent publication US10590132B2, “Selective estrogen receptor down-regulators” (AstraZeneca AB, priority 2017, dated 2020).

experiment: Human plasma protein binding (equilibrium dialysis); format: in vitro ADME; settings: dialysis 18 hours

Row | Human plasma protein binding (% free) | SMILES
1 | 6.1 | COc1ccc(O[C@H](C)CNCCCF)cc1[C@@H]1c2[nH]c3ccccc3c2C[C@@H](C)N1CC(F)(F)CO [Example 47, 2,2-difluoro-3-((1R,3R)-1-(5-(((R)-1-((3-fluoropropyl)amino)propan-2-yl)oxy)-2-methoxyphenyl)-3-methyl-1,3,4,9-tetrahydro-2H-pyrido[3,4-b]indol-2-yl)propan-1-ol]
2 | 7.1 | COc1ccc(OC[C@@H](C)NCCCF)cc1[C@@H]1c2[nH]c3ccccc3c2C[C@@H](C)N1CC(F)(F)CO [Example 50, 2,2-difluoro-3-((1R,3R)-1-(5-((R)-2-((3-fluoropropyl)amino)propoxy)-2-methoxyphenyl)-3-methyl-1,3,4,9-tetrahydro-2H-pyrido[3,4-b]indol-2-yl)propan-1-ol]
3 | 2.3 | C[C@@H]1Cc2c([nH]c3ccccc23)[C@@H](c2c(F)ccc(OCCNCCCF)c2F)N1CC(F)F [Example 51, N-(2-(3-((1R,3R)-2-(2,2-difluoroethyl)-3-methyl-2,3,4,9-tetrahydro-1H-pyrido[3,4-b]indol-1-yl)-2,4-difluorophenoxy)ethyl)-3-fluoropropan-1-amine]
4 | 80 | COc1ccc(OCCNCCCF)cc1[C@@H]1c2[nH]c3ccccc3c2C[C@@H](C)N1C[C@H](C)C(=O)O [Example 53, (S)-3-((1R,3R)-1-(5-(2-((3-fluoropropyl)amino)ethoxy)-2-methoxyphenyl)-3-methyl-1,3,4,9-tetrahydro-2H-pyrido[3,4-b]indol-2-yl)-2-methylpropanoic acid]
5 | 18 | C[C@@H]1Cc2c([nH]c3ccccc23)[C@@H](c2c(Cl)ccc(OCCNCCCF)c2F)N1C[C@H](C)C(=O)O [Example 54, (S)-3-((1R,3R)-1-(6-chloro-2-fluoro-3-(2-((3-fluoropropyl)amino)ethoxy)phenyl)-3-methyl-1,3,4,9-tetrahydro-2H-pyrido[3,4-b]indol-2-yl)-2-methylpropanoic acid]
6 | 4.6 | COc1ccc(OCCNCCCF)nc1[C@@H]1c2[nH]c3ccccc3c2C[C@@H](C)N1CC(F)(F)F [Example 56, 3-fluoro-N-(2-((5-methoxy-6-((1S,3R)-3-methyl-2-(2,2,2-trifluoroethyl)-2,3,4,9-tetrahydro-1H-pyrido[3,4-b]indol-1-yl)pyridin-2-yl)oxy)ethyl)propan-1-amine]
7 | 1.9 | C[C@@H]1Cc2c([nH]c3c(F)cccc23)[C@@H](c2c(F)ccc(OCCNCCCF)c2F)N1CC(F)(F)CO [Example 60, 3-((1R,3R)-1-(2,6-difluoro-3-(2-((3-fluoropropyl)amino)ethoxy)phenyl)-8-fluoro-3-methyl-1,3,4,9-tetrahydro-2H-pyrido[3,4-b]indol-2-yl)-2,2-difluoropropan-1-ol]
8 | 2.0 | C[C@@H]1Cc2c([nH]c3cc(F)ccc23)[C@@H](c2c(F)ccc(OCCNCCCF)c2F)N1CC(F)(F)CO [Example 61, 3-((1R,3R)-1-(2,6-difluoro-3-(2-((3-fluoropropyl)amino)ethoxy)phenyl)-7-fluoro-3-methyl-1,3,4,9-tetrahydro-2H-pyrido[3,4-b]indol-2-yl)-2,2-difluoropropan-1-ol]
9 | 1.2 | C[C@@H]1Cc2c([nH]c3cccc(F)c23)[C@@H](c2c(F)ccc(OCCNCCCF)c2F)N1CC(F)(F)CO [Example 62, 3-((1R,3R)-1-(2,6-difluoro-3-(2-((3-fluoropropyl)amino)ethoxy)phenyl)-5-fluoro-3-methyl-1,3,4,9-tetrahydro-2H-pyrido[3,4-b]indol-2-yl)-2,2-difluoropropan-1-ol]
10 | 0.97 | Cc1ccc2[nH]c3c(c2c1)C[C@@H](C)N(CC(F)(F)CO)[C@@H]3c1c(F)ccc(OCCNCCCF)c1F [Example 63, 3-((1R,3R)-1-(2,6-difluoro-3-(2-((3-fluoropropyl)amino)ethoxy)phenyl)-3,6-dimethyl-1,3,4,9-tetrahydro-2H-pyrido[3,4-b]indol-2-yl)-2,2-difluoropropan-1-ol]
11 | 1.9 | C[C@@H]1Cc2c([nH]c3ccc(F)cc23)[C@@H](c2c(F)cnc(OCCNCCCF)c2F)N1CC(F)(F)CO [Example 65, 3-((1R,3R)-1-(3,5-difluoro-2-(2-((3-fluoropropyl)amino)ethoxy)pyridin-4-yl)-6-fluoro-3-methyl-1,3,4,9-tetrahydro-2H-pyrido[3,4-b]indol-2-yl)-2,2-difluoropropan-1-ol]
12 | 1.3 | Cc1ccc2[nH]c3c(c2c1)C[C@@H](C)N(CC(F)(F)CO)[C@@H]3c1c(F)cnc(OCCNCCCF)c1F [Example 66, 3-((1R,3R)-1-(3,5-difluoro-2-(2-((3-fluoropropyl)amino)ethoxy)pyridin-4-yl)-3,6-dimethyl-1,3,4,9-tetrahydro-2H-pyrido[3,4-b]indol-2-yl)-2,2-difluoropropan-1-ol]
13 | 1.6 | C[C@@H]1Cc2c([nH]c3ccc(F)cc23)[C@@H](c2c(F)cnc(OCCN(C)CCCF)c2F)N1CC(F)(F)CO [Example 67, 3-((1R,3R)-1-(3,5-difluoro-2-(2-((3-fluoropropyl)(methyl)amino)ethoxy)pyridin-4-yl)-6-fluoro-3-methyl-1,3,4,9-tetrahydro-2H-pyrido[3,4-b]indol-2-yl)-2,2-difluoropropan-1-ol]
14 | 1.2 | C[C@@H]1Cc2c([nH]c3ccccc23)[C@@H](c2cccc(OCCNCCCF)c2C(F)F)N1CC(F)(F)CO [Example 68, 3-((1R,3R)-1-(2-(difluoromethyl)-3-(2-((3-fluoropropyl)amino)ethoxy)phenyl)-3-methyl-1,3,4,9-tetrahydro-2H-pyrido[3,4-b]indol-2-yl)-2,2-difluoropropan-1-ol]
15 | 2.2 | C[C@@H]1Cc2c([nH]c3ccccc23)[C@@H](c2cccc(OCCNCCCF)c2C#N)N1CC(F)(F)F [Example 69, 2-(2-((3-fluoropropyl)amino)ethoxy)-6-((1R,3R)-3-methyl-2-(2,2,2-trifluoroethyl)-2,3,4,9-tetrahydro-1H-pyrido[3,4-b]indol-1-yl)benzonitrile]
16 | 23 | C[C@@H]1Cc2c([nH]c3ccccc23)[C@@H](c2cc(OCCNCCCF)ccc2CO)N1CC(F)(F)F [Example 70, (4-(2-((3-fluoropropyl)amino)ethoxy)-2-((1R,3R)-3-methyl-2-(2,2,2-trifluoroethyl)-2,3,4,9-tetrahydro-1H-pyrido[3,4-b]indol-1-yl)phenyl)methanol]
17 | <0.1 | COc1ccc(OCCNCCC(F)(F)F)cc1[C@@H]1c2[nH]c3ccccc3c2C[C@@H](C)N1CC(F)(F)F [Example 72, 3,3,3-trifluoro-N-(2-(4-methoxy-3-((1R,3R)-3-methyl-2-(2,2,2-trifluoroethyl)-2,3,4,9-tetrahydro-1H-pyrido[3,4-b]indol-1-yl)phenoxy)ethyl)propan-1-amine]
18 | 0.08 | C[C@@H]1Cc2c([nH]c3ccccc23)[C@@](C)(c2cccc(OCCNCCCF)c2)N1CC(F)(F)F [Example 75, N-(2-(3-((1R,3R)-1,3-dimethyl-2-(2,2,2-trifluoroethyl)-2,3,4,9-tetrahydro-1H-pyrido[3,4-b]indol-1-yl)phenoxy)ethyl)-3-fluoropropan-1-amine]
19 | 5.5 | C[C@@H]1Cc2c([nH]c3ccccc23)[C@@H](c2c(F)ccc(OCCNCCCF)c2F)N1CC1(S(C)(=O)=O)CC1 [Example 77, N-(2-(2,4-difluoro-3-((1R,3R)-3-methyl-2-((1-(methylsulfonyl)cyclopropyl)methyl)-2,3,4,9-tetrahydro-1H-pyrido[3,4-b]indol-1-yl)phenoxy)ethyl)-3-fluoropropan-1-amine]
20 | 0.21 | C[C@@H]1Cc2c([nH]c3ccccc23)[C@@H](c2c(Cl)ccc(OCCNCCCF)c2F)N1CC(F)(F)F [Example 78, N-(2-(4-chloro-2-fluoro-3-((1R,3R)-3-methyl-2-(2,2,2-trifluoroethyl)-2,3,4,9-tetrahydro-1H-pyrido[3,4-b]indol-1-yl)phenoxy)ethyl)-3-fluoropropan-1-amine]
21 | <0.4 | Cc1ccc(OCCNCCCF)c(C)c1[C@@H]1c2[nH]c3ccccc3c2C[C@@H](C)N1CC(F)(F)F [Example 79, N-(2-(2,4-dimethyl-3-((1R,3R)-3-methyl-2-(2,2,2-trifluoroethyl)-2,3,4,9-tetrahydro-1H-pyrido[3,4-b]indol-1-yl)phenoxy)ethyl)-3-fluoropropan-1-amine]
22 | 2.9 | COc1ccc(OCCNCCCF)c(F)c1[C@@H]1c2[nH]c3ccccc3c2C[C@@H](C)N1CC(F)(F)CO [Example 81, 2,2-difluoro-3-((1R,3R)-1-(2-fluoro-3-(2-((3-fluoropropyl)amino)ethoxy)-6-methoxyphenyl)-3-methyl-1,3,4,9-tetrahydro-2H-pyrido[3,4-b]indol-2-yl)propan-1-ol]
23 | 2.5 | COc1ccc(OCCNCCCF)c(F)c1[C@@H]1c2[nH]c3ccccc3c2C[C@@H](C)N1CC1(F)CC1 [Example 83, 3-fluoro-N-(2-(2-fluoro-3-((1R,3R)-2-((1-fluorocyclopropyl)methyl)-3-methyl-2,3,4,9-tetrahydro-1H-pyrido[3,4-b]indol-1-yl)-4-methoxyphenoxy)ethyl)propan-1-amine]
24 | 6 | COc1ccc(OCCNCCCF)c(F)c1[C@@H]1c2[nH]c3ccccc3c2C[C@@H](C)N1CC1(F)COC1 [Example 84, 3-fluoro-N-(2-(2-fluoro-3-((1R,3R)-2-((3-fluorooxetan-3-yl)methyl)-3-methyl-2,3,4,9-tetrahydro-1H-pyrido[3,4-b]indol-1-yl)-4-methoxyphenoxy)ethyl)propan-1-amine]

Row | SMILES | Human plasma protein binding (% free)
25 | COc1ccc(OCCNCCCF)c(F)c1[C@@H]1c2[nH]c3ccccc3c2C[C@@H](C)N1CC(F)F [Example 82, N-(2-(3-((1R,3R)-2-(2,2-difluoroethyl)-3-methyl-2,3,4,9-tetrahydro-1H-pyrido[3,4-b]indol-1-yl)-2-fluoro-4-methoxyphenoxy)ethyl)-3-fluoropropan-1-amine] | 1.9
